Test system: insulinase
Experiment: insulinase inhibitory activity measurement (method of Duckworth et al.)
Format: biochemical
Settings: fractions of commercial bacitracin, result in words
Protocol: The desired fraction is believed to have a molecular weight of about 1400, approximately the same as bacitracin A or F. Their anti-insulinase and antibacterial activities can be assayed in conventional manner. For example, the insulinase inhibitory activity was measured according to the method of Duckworth, et al., Proc. Nat. Acad. Sci., 69, 3698-3702 (1972) and the anti-bacterial activity by the method of Patrick, et al., Antibiotics and Chemotherapy, 1, 133-137 (1951).
A 350 ml bed volume of CM-Sepharose in a packed column (2.8 x 56 cm) was equilibrated with 0.05M ammonium acetate, pH 4.5 One gram of commercial bacitracin dissolved in 50 ml of buffer was applied to the packed column. The material was eluted with 2 l of equilibrating buffer followed by 350 ml of 1M ammonium acetate pH 4.5 buffer. Five ml fractions were collected and absorbance measurements at 252, 280 and 290 nm were made. In addition, insulinase inhibitory activity measurements were made on each peak. […] The peaks were collected, lyophilized, weighed and dissolved in water at 5 mg/ml concentration for specific activity measurements. The material collected with the second buffer contained 5-10 % of the total weight of the applied material and 90 % of the total insulinase inhibitory capacity. The specific activity of this material was 10-12 times that of the starting commercial material.

Substance	insulinase inhibitory activity	insulinase inhibitory activity (listed as Bacitracin A)	insulinase inhibitory activity (listed as Bacitracin F)
bacitracin A	substantially no anti-insulinase activity	negligible	–
bacitracin F	substantially no anti-insulinase activity	–	negligible
